Assay [1] addresses T1, Serine/threonine-protein kinase ICK (Homo sapiens) (UniProt Q9UPZ9).
T1 sequence (whole entry): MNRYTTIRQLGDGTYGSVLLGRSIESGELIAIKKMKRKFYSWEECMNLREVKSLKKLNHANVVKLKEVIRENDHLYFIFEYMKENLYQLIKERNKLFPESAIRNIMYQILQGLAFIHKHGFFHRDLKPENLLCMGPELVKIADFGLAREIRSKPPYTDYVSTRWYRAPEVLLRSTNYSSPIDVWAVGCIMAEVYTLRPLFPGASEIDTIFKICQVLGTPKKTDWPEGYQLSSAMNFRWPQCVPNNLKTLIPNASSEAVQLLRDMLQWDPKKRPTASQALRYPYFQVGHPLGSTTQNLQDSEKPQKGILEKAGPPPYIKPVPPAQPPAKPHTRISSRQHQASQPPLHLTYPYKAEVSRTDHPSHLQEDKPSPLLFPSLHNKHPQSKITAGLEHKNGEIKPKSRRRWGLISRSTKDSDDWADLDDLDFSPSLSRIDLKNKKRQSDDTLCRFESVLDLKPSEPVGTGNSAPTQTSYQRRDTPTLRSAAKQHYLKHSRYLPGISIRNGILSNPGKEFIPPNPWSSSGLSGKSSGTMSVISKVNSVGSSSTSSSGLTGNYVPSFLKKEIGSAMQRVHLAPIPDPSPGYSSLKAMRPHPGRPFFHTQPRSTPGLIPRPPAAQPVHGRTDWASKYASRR
Nature of the assay: Selectivity interaction (KinomeScan (DiscoverX)) EUB0000595a ICK. The following applies: at 10 µM.

Assay [2] deals with Mitogen-activated protein kinase 14 (Homo sapiens, UniProt Q16539). Nature of the assay: Selectivity interaction (ActivX KiNativ screen (ex vivo kinase selectivity in human PBMCs)) EUB0001619a MAPK14. Format: cell-based. Conditions: PBMC, at 1 µM.
Assay [3] has as its target Cyclin-dependent kinase 2/cyclin A (Homo sapiens, UniProt P24941). Nature of the assay: Selectivity interaction (Enyzmatic assay) EUB0000601a CDK2. Format: protein-complex assay.
Assay [4] has as its target Tyrosine-protein kinase JAK2 (Homo sapiens, UniProt O60674). Nature of the assay: Selectivity interaction (Kinase panel (Invitrogen)) EUB0000639a JAK2. The following applies: at 200 nM.
For assay [5], the target named is Calcium/calmodulin-dependent protein kinase type II subunit gamma (Homo sapiens) (UniProt Q13555). The assay can be described thus: Selectivity interaction (ActivX KiNativ screen (kinase selectivity in THP-1 cell lysates)) EUB0000639a CAMK2G. Format: subcellular. Conditions: lysate.
The target in assay [6] is Ribosomal protein S6 kinase alpha-2 (Homo sapiens) (UniProt Q15349). The assay can be described thus: Selectivity interaction (ActivX KiNativ screen (kinase selectivity in THP-1 cell lysates)) EUB0000639a RPS6KA2. Format: subcellular. The following applies: lysate, at 5 µM.
Assay [7] addresses Ribosomal protein S6 kinase alpha-3 (Homo sapiens, UniProt P51812). The assay can be described thus: Selectivity interaction (ActivX KiNativ screen (kinase selectivity in THP-1 cell lysates)) EUB0000639a RPS6KA3. It is filed as subcellular. The following applies: lysate, at 0.2 µM.
The target in assay [8] is Serine/threonine-protein kinase WNK1 (Homo sapiens) (UniProt Q9H4A3). Nature of the assay: Selectivity interaction (ActivX KiNativ screen (kinase selectivity in THP-1 cell lysates)) EUB0000639a WNK1. It is filed as subcellular. The following applies: lysate, at 0.2 µM.
Assay [9] deals with Fibroblast growth factor receptor 2 (Homo sapiens) (UniProt P21802). The assay can be described thus: Selectivity interaction (Kinase panel (DSF assay)) EUB0001559a FGFR2.
The target of assay [10] is Serine/threonine-protein kinase MRCK beta (Homo sapiens) (UniProt Q9Y5S2). Nature of the assay: Selectivity interaction (ProQinase) EUB0000171b CDC42BPB.
For assay [11], the target named is Serine/threonine-protein kinase N1 (Homo sapiens, UniProt Q16512). Nature of the assay: Selectivity interaction (Ambit KINOMEscan and KiNATiv profiling in Jurkat cells) EUB0000090b PKN1. It is filed as cell-based. The following applies: at 1 µM.
Assay [12] concerns the target Mitogen-activated protein kinase kinase kinase kinase 1 (Homo sapiens) (UniProt Q92918). Nature of the assay: Selectivity interaction (KinomeScan (DiscoverX)) EUB0000655a MAP4K1. The following applies: at 10 µM.
Assay [13] addresses T2, Tyrosine-protein kinase Mer (Homo sapiens) (UniProt Q12866).
T2 sequence (whole entry): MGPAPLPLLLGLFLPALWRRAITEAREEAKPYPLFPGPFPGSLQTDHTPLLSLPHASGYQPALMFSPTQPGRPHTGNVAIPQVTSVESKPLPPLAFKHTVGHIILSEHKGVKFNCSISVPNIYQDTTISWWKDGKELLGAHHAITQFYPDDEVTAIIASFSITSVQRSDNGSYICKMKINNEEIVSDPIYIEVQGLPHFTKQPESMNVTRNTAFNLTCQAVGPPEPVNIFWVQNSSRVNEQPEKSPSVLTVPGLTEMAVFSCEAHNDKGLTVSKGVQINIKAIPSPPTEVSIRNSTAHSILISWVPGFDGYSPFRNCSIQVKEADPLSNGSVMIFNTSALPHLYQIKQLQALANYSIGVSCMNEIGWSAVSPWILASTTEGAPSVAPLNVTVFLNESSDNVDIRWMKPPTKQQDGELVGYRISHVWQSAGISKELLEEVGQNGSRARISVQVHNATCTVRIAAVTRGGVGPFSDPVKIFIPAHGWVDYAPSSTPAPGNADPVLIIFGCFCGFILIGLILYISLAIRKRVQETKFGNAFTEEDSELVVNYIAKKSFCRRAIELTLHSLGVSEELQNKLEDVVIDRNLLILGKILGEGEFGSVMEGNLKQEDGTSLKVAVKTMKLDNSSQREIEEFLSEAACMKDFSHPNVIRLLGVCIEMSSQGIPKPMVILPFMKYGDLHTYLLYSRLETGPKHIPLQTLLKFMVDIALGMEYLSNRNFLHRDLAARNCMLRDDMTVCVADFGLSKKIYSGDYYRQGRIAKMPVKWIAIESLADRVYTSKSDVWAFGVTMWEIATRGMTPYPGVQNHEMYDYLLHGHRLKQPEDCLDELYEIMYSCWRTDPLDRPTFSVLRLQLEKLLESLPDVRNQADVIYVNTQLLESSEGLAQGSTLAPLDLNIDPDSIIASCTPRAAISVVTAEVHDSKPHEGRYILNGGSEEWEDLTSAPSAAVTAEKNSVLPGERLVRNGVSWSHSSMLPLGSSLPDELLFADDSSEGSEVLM
The assay can be described thus: Selectivity interaction (KinomeScan (DiscoverX)) EUB0000618a MERTK. Conditions: at 10 µM.

Experimental findings from ChEMBL document CHEMBL5465560, “Selectivity Literature for EUbOPEN Chemogenomic Library” (2024) are described below.

pIC50: −log10 of the molar value.

Chain of Calcium/calmodulin-dependent protein kinase type II subunit gamma (Homo sapiens) (Q13555 whole entry): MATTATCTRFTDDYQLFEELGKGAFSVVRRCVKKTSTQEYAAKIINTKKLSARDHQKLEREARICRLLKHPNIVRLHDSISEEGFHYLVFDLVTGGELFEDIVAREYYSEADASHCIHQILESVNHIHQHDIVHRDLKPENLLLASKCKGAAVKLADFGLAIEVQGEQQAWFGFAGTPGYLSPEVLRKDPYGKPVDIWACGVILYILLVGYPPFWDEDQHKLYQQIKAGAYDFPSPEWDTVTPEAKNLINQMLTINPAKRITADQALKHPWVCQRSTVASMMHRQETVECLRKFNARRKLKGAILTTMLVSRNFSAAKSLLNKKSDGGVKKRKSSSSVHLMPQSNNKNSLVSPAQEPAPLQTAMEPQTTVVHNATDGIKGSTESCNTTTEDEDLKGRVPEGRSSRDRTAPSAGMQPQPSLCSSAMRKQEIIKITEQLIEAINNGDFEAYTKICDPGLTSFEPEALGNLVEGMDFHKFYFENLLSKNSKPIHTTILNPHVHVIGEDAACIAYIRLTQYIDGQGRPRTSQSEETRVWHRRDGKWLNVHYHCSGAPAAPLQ
Chain of Serine/threonine-protein kinase MRCK beta (Homo sapiens) (Q9Y5S2 whole entry): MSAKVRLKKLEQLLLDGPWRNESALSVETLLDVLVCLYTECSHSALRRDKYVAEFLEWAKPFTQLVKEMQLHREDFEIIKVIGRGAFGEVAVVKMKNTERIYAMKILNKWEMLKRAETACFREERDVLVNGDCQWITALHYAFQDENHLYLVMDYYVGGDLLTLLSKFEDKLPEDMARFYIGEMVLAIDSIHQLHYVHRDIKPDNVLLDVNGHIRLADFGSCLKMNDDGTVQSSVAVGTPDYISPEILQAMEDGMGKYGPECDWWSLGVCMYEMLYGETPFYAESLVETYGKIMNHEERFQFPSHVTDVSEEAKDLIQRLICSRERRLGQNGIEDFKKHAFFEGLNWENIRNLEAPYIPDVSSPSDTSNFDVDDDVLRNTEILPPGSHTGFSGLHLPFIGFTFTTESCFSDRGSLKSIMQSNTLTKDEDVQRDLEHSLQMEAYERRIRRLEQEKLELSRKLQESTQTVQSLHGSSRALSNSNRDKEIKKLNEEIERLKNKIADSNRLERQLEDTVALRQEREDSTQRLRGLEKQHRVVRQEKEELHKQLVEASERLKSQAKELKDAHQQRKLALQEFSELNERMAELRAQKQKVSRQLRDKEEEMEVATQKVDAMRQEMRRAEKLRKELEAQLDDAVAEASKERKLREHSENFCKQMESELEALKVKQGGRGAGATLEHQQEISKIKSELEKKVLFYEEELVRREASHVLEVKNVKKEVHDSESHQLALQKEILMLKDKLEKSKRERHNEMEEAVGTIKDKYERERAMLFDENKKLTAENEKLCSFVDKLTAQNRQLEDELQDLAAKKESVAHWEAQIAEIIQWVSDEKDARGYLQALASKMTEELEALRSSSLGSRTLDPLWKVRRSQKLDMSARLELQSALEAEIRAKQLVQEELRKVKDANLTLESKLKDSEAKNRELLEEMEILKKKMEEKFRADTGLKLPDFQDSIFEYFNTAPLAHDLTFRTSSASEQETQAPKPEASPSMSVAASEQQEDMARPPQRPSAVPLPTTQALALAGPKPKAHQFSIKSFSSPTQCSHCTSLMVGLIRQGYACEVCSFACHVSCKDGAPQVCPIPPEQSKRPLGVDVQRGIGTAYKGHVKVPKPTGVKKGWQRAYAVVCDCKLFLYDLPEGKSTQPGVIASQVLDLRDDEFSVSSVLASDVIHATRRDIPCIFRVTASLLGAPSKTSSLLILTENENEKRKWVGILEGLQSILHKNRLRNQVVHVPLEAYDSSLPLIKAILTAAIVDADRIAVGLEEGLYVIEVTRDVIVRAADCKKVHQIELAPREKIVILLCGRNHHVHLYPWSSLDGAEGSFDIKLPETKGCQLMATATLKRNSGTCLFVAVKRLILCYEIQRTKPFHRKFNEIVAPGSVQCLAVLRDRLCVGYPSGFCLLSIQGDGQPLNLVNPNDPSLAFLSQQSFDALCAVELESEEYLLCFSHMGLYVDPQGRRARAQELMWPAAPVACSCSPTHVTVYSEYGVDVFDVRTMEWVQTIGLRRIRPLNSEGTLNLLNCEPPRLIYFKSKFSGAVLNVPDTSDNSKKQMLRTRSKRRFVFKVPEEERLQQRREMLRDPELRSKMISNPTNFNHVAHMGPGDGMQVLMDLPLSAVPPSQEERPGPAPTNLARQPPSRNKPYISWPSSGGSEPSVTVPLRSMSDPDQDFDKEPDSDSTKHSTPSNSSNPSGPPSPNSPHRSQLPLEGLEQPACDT
Chain of Fibroblast growth factor receptor 2 (Homo sapiens) (P21802 22-821 limits assumed): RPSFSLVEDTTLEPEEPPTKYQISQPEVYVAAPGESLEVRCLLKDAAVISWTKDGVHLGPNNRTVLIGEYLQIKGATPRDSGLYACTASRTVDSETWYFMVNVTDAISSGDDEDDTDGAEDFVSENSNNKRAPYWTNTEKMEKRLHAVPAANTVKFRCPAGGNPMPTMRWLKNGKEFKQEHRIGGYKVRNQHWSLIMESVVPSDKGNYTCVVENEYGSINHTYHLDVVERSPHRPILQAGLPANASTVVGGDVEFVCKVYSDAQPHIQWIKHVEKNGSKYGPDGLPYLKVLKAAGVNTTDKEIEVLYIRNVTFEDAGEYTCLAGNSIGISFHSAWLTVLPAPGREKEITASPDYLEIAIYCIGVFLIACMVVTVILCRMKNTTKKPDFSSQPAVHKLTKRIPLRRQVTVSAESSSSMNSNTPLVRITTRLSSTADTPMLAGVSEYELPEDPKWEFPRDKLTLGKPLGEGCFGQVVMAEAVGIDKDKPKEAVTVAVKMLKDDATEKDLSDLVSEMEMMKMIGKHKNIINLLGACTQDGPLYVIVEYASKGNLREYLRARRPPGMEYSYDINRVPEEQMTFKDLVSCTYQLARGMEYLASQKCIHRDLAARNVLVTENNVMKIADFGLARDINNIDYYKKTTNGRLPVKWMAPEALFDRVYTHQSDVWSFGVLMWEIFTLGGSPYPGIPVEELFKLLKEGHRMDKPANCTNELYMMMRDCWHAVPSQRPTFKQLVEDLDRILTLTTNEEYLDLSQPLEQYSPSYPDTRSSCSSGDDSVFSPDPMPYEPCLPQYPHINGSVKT
Chain of Ribosomal protein S6 kinase alpha-3 (P51812 whole entry): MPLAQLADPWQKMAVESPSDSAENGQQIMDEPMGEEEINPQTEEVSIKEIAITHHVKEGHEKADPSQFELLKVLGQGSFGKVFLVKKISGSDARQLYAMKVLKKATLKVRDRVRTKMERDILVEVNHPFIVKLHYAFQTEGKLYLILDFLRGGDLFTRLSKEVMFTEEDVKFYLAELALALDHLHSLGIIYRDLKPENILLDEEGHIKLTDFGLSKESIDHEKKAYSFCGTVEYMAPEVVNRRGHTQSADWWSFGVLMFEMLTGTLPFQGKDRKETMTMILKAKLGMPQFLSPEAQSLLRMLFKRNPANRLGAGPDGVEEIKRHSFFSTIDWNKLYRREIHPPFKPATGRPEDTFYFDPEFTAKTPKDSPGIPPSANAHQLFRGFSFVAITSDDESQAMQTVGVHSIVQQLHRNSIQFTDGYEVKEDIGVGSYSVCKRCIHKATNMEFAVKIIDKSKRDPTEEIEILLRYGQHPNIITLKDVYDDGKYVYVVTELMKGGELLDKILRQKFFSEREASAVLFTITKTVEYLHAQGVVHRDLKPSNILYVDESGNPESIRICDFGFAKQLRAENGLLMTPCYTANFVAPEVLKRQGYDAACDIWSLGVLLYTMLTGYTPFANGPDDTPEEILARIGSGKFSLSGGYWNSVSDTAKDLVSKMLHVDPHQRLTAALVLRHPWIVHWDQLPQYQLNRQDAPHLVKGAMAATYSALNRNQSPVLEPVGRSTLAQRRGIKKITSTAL
Chain of Serine/threonine-protein kinase N1 (Q16512 2-942 limits assumed): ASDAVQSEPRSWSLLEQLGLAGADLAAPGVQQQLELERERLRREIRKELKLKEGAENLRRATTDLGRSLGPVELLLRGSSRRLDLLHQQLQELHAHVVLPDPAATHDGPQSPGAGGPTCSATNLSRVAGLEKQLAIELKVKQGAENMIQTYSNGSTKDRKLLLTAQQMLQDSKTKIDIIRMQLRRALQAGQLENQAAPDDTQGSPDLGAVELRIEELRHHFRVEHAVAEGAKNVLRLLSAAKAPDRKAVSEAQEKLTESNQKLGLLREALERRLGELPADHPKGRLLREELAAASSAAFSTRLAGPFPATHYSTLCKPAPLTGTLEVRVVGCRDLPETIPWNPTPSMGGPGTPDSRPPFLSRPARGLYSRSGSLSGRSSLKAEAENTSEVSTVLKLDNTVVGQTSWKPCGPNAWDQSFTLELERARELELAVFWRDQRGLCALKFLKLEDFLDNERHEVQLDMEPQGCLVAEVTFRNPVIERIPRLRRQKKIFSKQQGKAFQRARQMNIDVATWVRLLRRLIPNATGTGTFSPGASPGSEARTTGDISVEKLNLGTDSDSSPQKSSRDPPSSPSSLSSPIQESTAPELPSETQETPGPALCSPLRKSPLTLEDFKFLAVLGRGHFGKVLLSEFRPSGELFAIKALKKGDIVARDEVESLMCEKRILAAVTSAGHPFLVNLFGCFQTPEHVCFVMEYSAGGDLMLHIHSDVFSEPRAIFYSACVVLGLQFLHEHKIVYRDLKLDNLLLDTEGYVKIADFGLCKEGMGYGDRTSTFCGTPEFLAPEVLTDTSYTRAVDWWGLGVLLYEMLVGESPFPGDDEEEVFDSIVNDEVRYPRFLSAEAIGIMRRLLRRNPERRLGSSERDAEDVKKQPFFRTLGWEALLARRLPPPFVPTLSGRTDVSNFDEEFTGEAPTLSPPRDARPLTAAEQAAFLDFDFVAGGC

As to `COCC(=O)NC/C=C/c1ccc2ncnc(Nc3ccc(Oc4ccc(C)nc4)c(C)c3)c2c1` [CP-724714], the % of control in assay [1] turned out to be 100%.

Turning to `N#Cc1cccc(-c2c[nH]c3ncnc(N4CCOCC4)c23)c1`, the % of inhibition in assay [2] was -15%.

In general, pIC50 refers to −log10 of the IC50, conventionally taken in molar units. Low readings indicate a large IC50, high ones a small IC50. As for `CCc1cc(Nc2nccc(-c3c(-c4ccc(OC)c(C(=O)Nc5c(F)cccc5F)c4)nc4ccccn34)n2)c(OC)cc1N1CCC(N2CCN(S(C)(=O)=O)CC2)CC1`, the pIC50 in assay [3] is < 5.00.

Regarding `CC[C@@H]1[C@H](F)C(=O)N[C@@H]1COc1nccc2cc(C(N)=O)c(OC)cc12` [ZIMLOVISERTIB], the % of inhibition in assay [4] is 15.4%; in [5] (at 0.01 µM), -1%; in assay [5] (at 0.04 µM) it was 3.3%; in assay [5] (at 0.2 µM), 10%; in assay [5] (at 1 µM), 35.2%; in assay [5] (at 5 µM), 63%. In addition, the figures for the % of inhibition in [6], in assay [7] and in assay [8] were 6.4%, 15.4% and -12%, respectively.

As for `CN(C(=O)c1cnn2cccnc12)c1cc2c(cc1N1CCOCC1)C(=O)N(C[C@@H](F)C(C)(C)O)C2`, the dTM in [9] worked out at 0.3 K.

For `C=CC(=O)Nc1cccc(C(=O)Nc2ccc(Nc3cc(-c4[nH]c(SC)nc4C)ccn3)cc2)c1`, the % of control in assay [10] (at 1 µM) worked out at 89%; in assay [10] (at 5 µM) it was 82%.

For the molecule `CN(C)C/C=C/C(=O)Nc1ccc(C(=O)N2CCCC(Nc3ncc(Cl)c(-c4c[nH]c5ccccc45)n3)C2)cc1` (stereo not drawn), the % of control in assay [11] amounted to 94%.

Regarding `CN(C)CCOc1ccc(-c2nc(-c3ccncc3)c(-c3ccc4c(c3)CC/C4=N\O)[nH]2)cc1`, the % of control in assay [12] stood at 97%.

For the molecule `O[C@H]1CC[C@H](Nc2ncc3nc(Nc4c(F)cc(F)cc4F)n([C@H]4CCOC4)c3n2)CC1`, the % of control in assay [13] was 17%.
